Source: US6825199B2, “7-Substituted quinazolin-2,4-diones useful as antibacterial agents” (Warner-Lambert Company, priority 1997, dated 2004)
≈ marks a conversion by molar mass, not a printed value.

Experiments:
Assay type in all cases: cell-based
[1] = test system: Chinese hamster V79 cells; assay: Mammalian cell cytotoxicity, colony formation; details: 3 hours drug treatment, colony formation after 5 days
Experimental: The cytotoxicity was determined in Chinese hamster V79 cells. The cells were grown overnight and treated with drug for 3 hours at 37° C., at which time the compound containing media was replaced with fresh media. The cells were then incubated for 5 days and examined for colony formation.

E. coli MC4100 = assay: Antibacterial assay, standard microtitration (MIC); details: Escherichia coli, MC4100; Gram negative; read-out: Minimum Inhibitory Concentrations E. coli MC4100
Experimental: (§1) Antibacterial assay: The compounds of the present invention were tested against an assortment of Gram negative and Gram positive organisms using standard microtitration techniques (Cohen, et al., Antimicrob. Agents Chemother., 1985;28:766; Heifetz, et al., Antimicrob. Agents Chemother., 1974;6:124).

B. subtilis RB1 = assay: Antibacterial assay, standard microtitration (MIC); details: Bacillus subtilis, Gram positive, read-out: Minimum Inhibitory Concentrations B. subtilis RB1
Experimental: as §1

E. coli B90 = assay: Antibacterial assay, standard microtitration (MIC); details: Escherichia coli, B90; Gram negative; read-out: Minimum Inhibitory Concentrations E. coli B90
Experimental: as §1

S. pyogenes C203 = assay: Antibacterial assay, standard microtitration (MIC); details: Streptococcus pyogenes, C203; Gram positive; read-out: Minimum Inhibitory Concentrations S. pyogenes C203
Experimental: as §1

E. coli Tol C = assay: Antibacterial assay, standard microtitration (MIC); details: Escherichia coli, read-out: Minimum Inhibitory Concentrations E. coli Tol C
Experimental: as §1

S. aureus 29213 = assay: Antibacterial assay, standard microtitration (MIC); details: Staphylococcus aureus, 29213; Gram positive; read-out: Minimum Inhibitory Concentrations S. aureus 29213
Experimental: as §1

Question: With `CCn1c(=O)n(O)c(=O)c2cc(F)c(N3CCOCC3)cc21` [Example 3, 1-Ethyl-6-fluoro-3-hydroxy-7-morpholin-4-yl-1H-quinazoline-2,4-dione] as the molecule, how does the “50% Cytotoxic Conc. in CHO Cells” value [1] read?
Answer: The value was 176 µg/mL.

Question: And the MIC (E. coli MC4100)?
Answer: The MIC was over 64 µg/mL.

Question: What about the MIC (B. subtilis RB1) of the same molecule?
Answer: The MIC was 8 µg/mL (≈ 25.9 µM).

Question: What about the MIC (E. coli B90) of the same molecule?
Answer: Its MIC is 4 µg/mL (≈ 12.9 µM).

Question: What about the MIC (S. pyogenes C203) of the same molecule?
Answer: Its MIC is over 64 µg/mL.

Question: What about the MIC (E. coli Tol C) of the same molecule?
Answer: Its MIC is 2 µg/mL (≈ 6.47 µM).

Question: What about the MIC (S. aureus 29213) of the same molecule?
Answer: The MIC was over 64 µg/mL.
